Data published in patent US20040209238A1, “Cell division-visualized cell and method of production of the same, method of detection of fluorescence, method of evaluation of influence upon cell division, and method of screenig” (NAGASE & CO., LTD., priority 2002, published 2004).
Entries after “also recorded” stand apart in the source; their conditions may differ.

System: human MDA435 cell (transformed with aurora A-GFP, histone H3-CFP, importin α-DsRed)
Test: real-time fluorescence observation of cell division in the cell division-visualized cell after addition of an agent
Type: cell-based
Conditions: vinblastine added to the culture fluid
Description: As a cell to which the aforementioned plasmid DNA is introduced, human MDA435 cell (Vig et al., 1996; Sugimoto et al., 2000, 2001) was used. The human MDA435 cell was cultured in D-MEM medium containing 10% FCS (manufactured by Nissui Pharmaceutical Co., Ltd.) at 37° C. under 5% carbon dioxide in the air. Cells in the logarithmic growth phase were washed with 4 ml of 1×PBS (−), and the cells were detached by adding 1 ml of trypsin. After terminating the action of trypsin by adding 4 ml of D-MEM medium, the cell suspension was transferred into a centrifuge tube, and a part thereof was removed to subject to the measurement of cell number using a hematometer. The remaining part was centrifuged at 1000 rpm for 10 minutes, and thus recovered cells were washed by suspending in 12 ml of 1×PBS (−). This operation was repeated twice, and the cells were suspended in 1×K-PBS to give the cell density of 1.2×10^7 cells/ml.
The transformed cells described above were cultured in a wet chamber with controlled carbon dioxide concentration and temperature by a thermostat and a control timer of carbon dioxide introduction (Japan, manufactured by Kokensya Engineering), using a 35 mm dish (with a cover glass attached on the bottom: manufactured by ASAHI TECHNO GLASS CORPORATION) on the stage of a inverted fluorescence microscope “Eclipse TE300” (manufactured by Nikon) equipped with a objective lens “PlanApo 60×”. Then, a highly sensitive CCD camera ORCA-ER (manufactured by Hamamatsu Photonics K.K.), and an excitation/absorption filter wheel equipped with a filter set for CFP/YFP/RFP for the observation (No. 86006, manufactured by Chroma Technology Corp.) and aZ-axis motor, and a controller “BioPoint MAC5000” (manufactured by Ludl Electronic Products Ltd.) which is a control equipment of the same were used, with the use of a computer software (LuminaVision version 1.40, manufactured by Mitani Co., Ltd.) for controlling these accessories. […]

CC[C@]1(O)C[C@@H]2CN(CCc3c([nH]c4ccccc34)[C@@](C(=O)OC)(c3cc4c(cc3OC)N(C)[C@H]3[C@@](O)(C(=O)OC)[C@H](OC(C)=O)[C@]5(CC)C=CCN6CC[C@]43[C@@H]65)C2)C1 [vinblastine] was tested, and the “alignment of the chromosomes on the equatorial plane (transition to the metaphase)” value (cyan fluorescence (histone H3), up to 130 minutes following initiation of the observation, FIG. 2 and FIG. 3) was “not found even after lapse of 130 minutes; also recorded: not observed even after lapse of 130 minutes”, the “movement of the centrosomes toward the poles and formation of the spindle” value (green fluorescence (aurora A), FIG. 2) was “inhibition was made on the movement of the centrosomes toward the poles” and the “progress of cell division, transition from the prophase to the prometaphase” value (observed at intervals of 2 minutes, FIG. 2 and FIG. 3) was “inhibition of the transition from the prophase to the prometaphase”.
